From US20070048247A1, “Deodorizing tablets” (Kimberly-Clark Worldwide, Inc., priority 2005, published 2007)

What was measured:
[1] = Example 4 urine odor panel ranking; parameters: species or system Human; settings: 8 millimolar in urine, scale 1 to 7, 7 most malodorous
Description: Powders of the aforementioned quinone compounds (commercially available from Sigma-Aldrich Chemical Co., Inc. of St. Louis, Missouri and Noveon Hilton Davis, Inc. of Cincinnati, Ohio) were weighed and placed into the mason jars containing 50 milliliters of urine so that the final concentration of the powder was 8 millimolar (equivalent to 0.5 wt. %).
To aid in the assessment of the quinone compounds, panelists were asked to rank the mason jars from least to most malodorous (on a scale from 1 to 7, with 7 being the most malodors). The results are set forth below in Tables 12 and 13.

[2] = Example 5 urine odor panel ranking; parameters: species or system Human
Procedure: Assessments were conducted the following day by asking panelists to rate each jar from 1 (least urine malodor) to 8 (most urine malodor). The results are set forth below in Tables 15-18.

[3] = Example 7 urine odor panel ranking (16 millimolar); parameters: species or system Human; settings: 16 millimolar in urine, 1 least, 10 most urine malodor
Procedure: The effectiveness of various quinone compounds in reducing urine odor was compared. […] Human female urine was initially collected and pooled at Kimberly-Clark Corporation. The pooled urine was added to mason jars in 50-milliliter aliquots using an automated pipette aid. Powders of the aforementioned quinone compounds (commercially available from Sigma-Aldrich Chemical Co., Inc. of St. Louis, Missouri and Noveon Hilton Davis, Inc. of Cincinnati, Ohio) were weighed and placed into the mason jars containing 50 milliliters of urine so that the final concentration of the powder was 16 millimolar (equivalent to 1 wt. %). The mason jars were placed in an incubator overnight at 37° C. The experimental setup is set forth in more detail below in Table 21.
Jars were wrapped in foil and placed in an incubator at 37° C. overnight. The jars were divided into four groups (C-F), each sharing the same control jar of urine alone (no powder). Assessments were conducted the following day by asking panelists to rate each jar from 1 (least urine malodor) to 10 (most urine malodor).

[4] = Solubility of powder in urine
[5] = Example 5 Group B, 8 mM in urine, 1 least, 8 most urine malodor
[6] = Example 5, 8 mM in 50 milliliters of urine
[7] = Example 7, 16 mM in 50 milliliters of urine
[8] = Example 5 Group A, 8 mM in urine, 1 least, 8 most urine malodor

Question: Which “Average Rankings, Avg. Score” value [1] does the source give for `O=C1c2ccccc2C(=O)c2c(O)ccc(O)c21` [1,4-Dihydroxyanthraquinone, 1,4-dihydroxyanthraquinone] here?
Answer: 4.75

Question: What about the “Urine Odor Ranking 2 (number of panelists)” value [1] of the same compound?
Answer: 1

Question: And the “Urine Odor Ranking 4 (number of panelists)” value [1]?
Answer: 1

Question: What about the “Urine Odor Ranking 6 (number of panelists)” value [1] of the same compound?
Answer: 1

Question: What about the “Urine Odor Ranking 7 (number of panelists)” value [1] of the same compound?
Answer: 1

Question: What does the source list for `Nc1ccc(O)c2c1C(=O)c1ccccc1C2=O` [1-Amino-4-Hydroxyanthraquinone, 1-amino-4-hydroxyanthraquinone]?
Answer: Average Rankings, Avg. Score [1]: 5; Urine Odor Ranking 3 (number of panelists) [1]: 1; Urine Odor Ranking 5 (number of panelists) [1]: 2; Urine Odor Ranking 7 (number of panelists) [1]: 1

Question: For `CC(=O)Nc1ccc(Nc2cc(S(=O)(=O)[O-])c(N)c3c2C(=O)c2ccccc2C3=O)cc1.[Na+]` [Acid Blue 40], which “odor reduction performance (in words)” value ([2]; Example 5 Group B) is on record?
Answer: performed well

Question: What about the “Average Rankings (Group B), Avg. Score” value [2, 5] of the same compound?
Answer: 4.25

Question: What about the “Urine Odor Ranking 2 (number of panelists)” value [2, 5] of the same compound?
Answer: 1

Question: What about the “Urine Odor Ranking 4 (number of panelists)” value [2, 5] of the same compound?
Answer: 2

Question: What about the “Urine Odor Ranking 7 (number of panelists)” value [2, 5] of the same compound?
Answer: 1

Question: What about the “Average Rankings (Group F), Avg. Score” value ([3]; Example 7 Group F) of the same compound?
Answer: 3.8

Question: And the “Urine Odor Ranking 1 (number of panelists)” value ([3]; Example 7 Group F)?
Answer: 1

Question: What about the “Urine Odor Ranking 2 (number of panelists)” value ([3]; Example 7 Group F) of the same compound?
Answer: 1

Question: And the “Urine Odor Ranking 3 (number of panelists)” value ([3]; Example 7 Group F)?
Answer: 1

Question: And the “Urine Odor Ranking 4 (number of panelists)” value ([3]; Example 7 Group F)?
Answer: 1

Question: What about the “Urine Odor Ranking 9 (number of panelists)” value ([3]; Example 7 Group F) of the same compound?
Answer: 1

Question: What about the “Soluble?” value [4, 6] of the same compound?
Answer: Yes

Question: And the “Soluble?” value [4, 7]?
Answer: Somewhat

Question: For `CC(=O)N(C)c1ccc(Nc2cc(S(=O)(=O)[O-])c(N)c3c2C(=O)c2ccccc2C3=O)cc1.[Na+]` [Acid Blue 41], which “Average Rankings (Group A), Avg. Score” value [2, 8] is on record?
Answer: 5

Question: What about the “Urine Odor Ranking 4 (number of panelists)” value [2, 8] of the same compound?
Answer: 1

Question: What about the “Urine Odor Ranking 5 (number of panelists)” value [2, 8] of the same compound?
Answer: 2

Question: What about the “Urine Odor Ranking 6 (number of panelists)” value [2, 8] of the same compound?
Answer: 1

Question: What about the “Average Rankings (Group C), Avg. Score” value ([3]; Example 7 Group C) of the same compound?
Answer: 3.4

Question: And the “Urine Odor Ranking 2 (number of panelists)” value ([3]; Example 7 Group C)?
Answer: 2

Question: What about the “Urine Odor Ranking 3 (number of panelists)” value ([3]; Example 7 Group C) of the same compound?
Answer: 2

Question: What about the “Urine Odor Ranking 7 (number of panelists)” value ([3]; Example 7 Group C) of the same compound?
Answer: 1

Question: And the “Soluble?” value [4, 6]?
Answer: Yes

Question: And the “Soluble?” value [4, 7]?
Answer: Yes

Question: What does the source list for `Cc1cc(C)c(S(=O)(=O)[O-])c(C)c1Nc1ccc(Nc2c(C)cc(C)c(S(=O)(=O)[O-])c2C)c2c1C(=O)c1ccccc1C2=O.[Na+].[Na+]` [Acid Blue 80]?
Answer: Average Rankings (Group B), Avg. Score [2, 5]: 6.25; Urine Odor Ranking 4 (number of panelists) [2, 5]: 1; Urine Odor Ranking 5 (number of panelists) [2, 5]: 1; Urine Odor Ranking 8 (number of panelists) [2, 5]: 2; Average Rankings (Group F), Avg. Score ([3]; Example 7 Group F): 5.4; Urine Odor Ranking 1 (number of panelists) ([3]; Example 7 Group F): 1; Urine Odor Ranking 5 (number of panelists) ([3]; Example 7 Group F): 1; Urine Odor Ranking 6 (number of panelists) ([3]; Example 7 Group F): 1; Urine Odor Ranking 7 (number of panelists) ([3]; Example 7 Group F): 1; Urine Odor Ranking 8 (number of panelists) ([3]; Example 7 Group F): 1; Soluble? [4, 6]: Yes; Soluble? [4, 7]: Mostly

Question: Which “Average Rankings (Group E), Avg. Score” value ([3]; Example 7 Group E) does the source give for `Cc1c(C(=O)O)c(O)cc2c1C(=O)c1c(O)c([C@@H]3O[C@H](CO)[C@@H](O)[C@H](O)[C@H]3O)c(O)c(O)c1C2=O` [Carminic Acid, Natural Red 4 (Carminic Acid)] here?
Answer: 3.6

Question: And the “Urine Odor Ranking 1 (number of panelists)” value ([3]; Example 7 Group E)?
Answer: 2

Question: And the “Urine Odor Ranking 3 (number of panelists)” value ([3]; Example 7 Group E)?
Answer: 1

Question: What about the “Urine Odor Ranking 4 (number of panelists)” value ([3]; Example 7 Group E) of the same compound?
Answer: 1

Question: And the “Urine Odor Ranking 9 (number of panelists)” value ([3]; Example 7 Group E)?
Answer: 1

Question: Which “Average Rankings (Group C), Avg. Score” value ([3]; Example 7 Group C) does the source give for `Cc1cc(O)c2c(c1)C(=O)c1cc(O)cc(O)c1C2=O` [Emodin] here?
Answer: 7.8

Question: And the “Urine Odor Ranking 5 (number of panelists)” value ([3]; Example 7 Group C)?
Answer: 1

Question: And the “Urine Odor Ranking 8 (number of panelists)” value ([3]; Example 7 Group C)?
Answer: 2

Question: And the “Urine Odor Ranking 9 (number of panelists)” value ([3]; Example 7 Group C)?
Answer: 2

Question: And the “Soluble?” value [4, 7]?
Answer: No

Question: What does the source list for `CCNc1ccc(NCC)c2c1C(=O)c1ccccc1C2=O` [Solvent Blue 59]?
Answer: Average Rankings, Avg. Score [1]: 5.25; Urine Odor Ranking 3 (number of panelists) [1]: 1; Urine Odor Ranking 5 (number of panelists) [1]: 1; Urine Odor Ranking 6 (number of panelists) [1]: 1; Urine Odor Ranking 7 (number of panelists) [1]: 1

Question: For `Cc1ccc(Nc2ccc(Nc3ccc(C)cc3)c3c2C(=O)c2ccccc2C3=O)cc1` [Solvent Green 3], which “Average Rankings, Avg. Score” value [1] is on record?
Answer: 3.75

Question: What about the “Urine Odor Ranking 2 (number of panelists)” value [1] of the same compound?
Answer: 1

Question: What about the “Urine Odor Ranking 3 (number of panelists)” value [1] of the same compound?
Answer: 1

Question: And the “Urine Odor Ranking 4 (number of panelists)” value [1]?
Answer: 1

Question: And the “Urine Odor Ranking 6 (number of panelists)” value [1]?
Answer: 1

Question: For Acid Black 48, which “Average Rankings (Group C), Avg. Score” value ([3]; Example 7 Group C) is on record?
Answer: 7.2

Question: And the “Urine Odor Ranking 2 (number of panelists)” value ([3]; Example 7 Group C)?
Answer: 1

Question: What about the “Urine Odor Ranking 6 (number of panelists)” value ([3]; Example 7 Group C) of the same compound?
Answer: 1

Question: And the “Urine Odor Ranking 8 (number of panelists)” value ([3]; Example 7 Group C)?
Answer: 1

Question: And the “Urine Odor Ranking 10 (number of panelists)” value ([3]; Example 7 Group C)?
Answer: 2

Question: And the “Soluble?” value [4, 7]?
Answer: Somewhat
